Each compound was assayed against T1, purified human HDAC6 (Homo sapiens, UniProt Q9UBN7) (assay: HDAC6 Enzyme Assay). Settings: HDAC6 inhibition at a compound concentration of 0.412 μM; read-out: Percent Inhibition at 0.412 μM.
T1 construct: purchased BPS Bioscience 5006
T1 sequence (Q9UBN7 1-1215): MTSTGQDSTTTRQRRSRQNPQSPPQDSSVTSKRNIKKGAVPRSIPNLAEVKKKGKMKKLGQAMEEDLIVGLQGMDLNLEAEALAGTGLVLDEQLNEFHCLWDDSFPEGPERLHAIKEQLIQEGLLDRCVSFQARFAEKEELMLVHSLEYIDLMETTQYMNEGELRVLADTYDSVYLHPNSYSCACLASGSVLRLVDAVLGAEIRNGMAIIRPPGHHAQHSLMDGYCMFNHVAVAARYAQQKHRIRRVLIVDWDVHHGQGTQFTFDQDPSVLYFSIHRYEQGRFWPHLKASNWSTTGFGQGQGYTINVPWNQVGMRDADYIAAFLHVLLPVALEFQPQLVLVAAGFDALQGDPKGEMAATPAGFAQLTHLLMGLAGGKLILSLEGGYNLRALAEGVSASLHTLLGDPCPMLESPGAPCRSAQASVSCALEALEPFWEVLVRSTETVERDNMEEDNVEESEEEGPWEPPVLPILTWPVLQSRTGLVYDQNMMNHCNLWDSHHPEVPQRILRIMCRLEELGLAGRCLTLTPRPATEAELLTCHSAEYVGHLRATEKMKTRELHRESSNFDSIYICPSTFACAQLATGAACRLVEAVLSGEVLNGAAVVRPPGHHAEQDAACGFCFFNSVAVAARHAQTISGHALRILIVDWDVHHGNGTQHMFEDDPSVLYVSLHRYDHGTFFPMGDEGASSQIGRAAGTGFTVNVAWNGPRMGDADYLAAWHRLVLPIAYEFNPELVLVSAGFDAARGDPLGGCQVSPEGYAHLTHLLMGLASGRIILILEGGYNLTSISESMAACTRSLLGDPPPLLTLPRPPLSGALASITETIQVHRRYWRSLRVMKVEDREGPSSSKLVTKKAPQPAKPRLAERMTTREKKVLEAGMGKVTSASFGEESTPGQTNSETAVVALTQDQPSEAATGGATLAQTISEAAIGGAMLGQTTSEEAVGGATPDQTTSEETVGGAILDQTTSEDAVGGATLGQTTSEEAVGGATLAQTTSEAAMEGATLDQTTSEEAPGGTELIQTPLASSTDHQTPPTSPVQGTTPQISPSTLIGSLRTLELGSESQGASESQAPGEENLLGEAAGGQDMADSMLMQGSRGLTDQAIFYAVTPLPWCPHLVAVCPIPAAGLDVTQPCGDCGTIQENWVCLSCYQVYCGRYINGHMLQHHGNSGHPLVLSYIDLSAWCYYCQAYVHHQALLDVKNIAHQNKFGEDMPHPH
Assay type: biochemical

| Compound | inhibition at 0.412 µM [%] |
| --- | --- |
| O=C(NO)c1ccc2c(c1)CC(NS(=O)(=O)c1ccccc1)CC2 (stereo not shown) [Compound I-96, N-hydroxy-7-[(phenylsulfonyl)amino]-5,6,7,8-tetrahydronaphthalene-2-carboxamide] | 92 |
| Nc1cc(C2CCc3ccc(C(=O)NO)cc3C2)ncn1 (stereo not shown) [Compound I-98, 7-(6-aminopyrimidin-4-yl)-N-hydroxy-5,6,7,8-tetrahydronaphthalene-2-carboxamide] | 93 |
| O=C(NO)c1ccc2c(c1)CCC(c1ccncc1)C2 (stereo not shown) [Compound I-99, N-hydroxy-6-pyridin-4-yl-5,6,7,8-tetrahydronaphthalene-2-carboxamide] | 77 |
| O=C(NO)c1ccc2c(c1)CCC(CCc1cccc(F)c1)C2 (stereo not shown) [Compound I-103, 6-[2-(3-fluorophenyl)ethyl]-N-hydroxy-5,6,7,8-tetrahydronaphthalene-2-carboxamide] | 63 |
| COc1ccccc1C1CCc2cc(C(=O)NO)ccc2C1 (stereo not shown) [Compound I-104, N-hydroxy-6-(2-methoxyphenyl)-5,6,7,8-tetrahydronaphthalene-2-carboxamide] | 56 |
| COc1ccc(C2CCc3cc(C(=O)NO)ccc3C2)cc1 (stereo not shown) [Compound I-105, N-hydroxy-6-(4-methoxyphenyl)-5,6,7,8-tetrahydronaphthalene-2-carboxamide] | 43 |
| O=C(NO)c1ccc2c(c1)CCC(NCc1ccc(Cl)cc1)C2 (stereo not shown) [Compound I-106, 6-[(4-chlorobenzyl)amino]-N-hydroxy-5,6,7,8-tetrahydronaphthalene-2-carboxamide] | 90 |
| O=C(NO)c1ccc2c(c1)CCC(NCc1ccncc1)C2 (stereo not shown) [Compound I-107, N-hydroxy-6-[(pyridin-4-ylmethyl)amino]-5,6,7,8-tetrahydronaphthalene-2-carboxamide] | 84 |
| O=C(NO)c1ccc2c(c1)CCC(Oc1ccncc1)C2 (stereo not shown) [Compound I-108, N-hydroxy-6-(pyridin-4-yloxy)-5,6,7,8-tetrahydronaphthalene-2-carboxamide] | 95 |
| CC(C)(C)C(=O)NC1CCc2cc(C(=O)NO)ccc2C1 (stereo not shown) [Compound I-111, 6-[(2,2-dimethylpropanoyl)amino]-N-hydroxy-5,6,7,8-tetrahydronaphthalene-2-carboxamide] | 75 |
| COc1cccc(C(=O)NC2CCc3cc(C(=O)NO)ccc3C2)c1 (stereo not shown) [Compound I-112, N-hydroxy-6-[(3-methoxybenzoyl)amino]-5,6,7,8-tetrahydronaphthalene-2-carboxamide] | 87 |
| CC1(C(=O)NC2CCc3ccc(C(=O)NO)cc3C2)CCNCC1 (stereo not shown) [Compound I-114, N-{7-[(hydroxyamino)carbonyl]-1,2,3,4-tetrahydronaphthalen-2-yl}-4-methylpiperidine-4-carboxamide] | 82 |
| O=C(NO)c1ccc2c(c1)CC(OCc1ccc(Cl)cc1)CC2 (stereo not shown) [Compound I-117, 7-[(4-chlorobenzyl)oxy]-N-hydroxy-5,6,7,8-tetrahydronaphthalene-2-carboxamide] | 92 |
| CCOC1CCc2ccc(C(=O)NO)cc2C1 (stereo not shown) [Compound I-118, 7-ethoxy-N-hydroxy-5,6,7,8-tetrahydronaphthalene-2-carboxamide] | 75 |
| COc1ccccc1C(=O)NC1CCc2cc(C(=O)NO)ccc2C1 (stereo not shown) [Compound I-122, N-hydroxy-6-[(2-methoxybenzoyl)amino]-5,6,7,8-tetrahydronaphthalene-2-carboxamide] | 88 |
| Cn1cccc1C(=O)N1C2CCC1c1cc(C(=O)NO)ccc12 (stereo not shown) [Compound I-123, N-hydroxy-9-[(1-methyl-1H-pyrrol-2-yl)carbonyl]-1,2,3,4-tetrahydro-1,4-epiminonaphthalene-6-carboxamide] | 90 |
| O=C(NO)c1ccc2c(c1)CCC(OCc1ccc(Cl)cc1)C2 (stereo not shown) [Compound I-125, 6-[(4-chlorobenzyl)oxy]-N-hydroxy-5,6,7,8-tetrahydronaphthalene-2-carboxamide] | 87 |
| CC1(C(=O)Nc2cc(OC3CCc4cc(C(=O)NO)ccc4C3)ccn2)CCNCC1 (stereo not shown) [Compound I-148, N-[4-({6-[(hydroxyamino)carbonyl]-1,2,3,4-tetrahydronaphthalen-2-yl}oxy)pyridin-2-yl]-4-methylpiperidine-4-carboxamide] | 93 |
| CC(C)(C)C(=O)Nc1cc(OC2CCc3cc(C(=O)NO)ccc3C2)ccn1 (stereo not shown) [Compound I-150, 6-({2-[(2,2-dimethylpropanoyl)amino]pyridin-4-yl}oxy)-N-hydroxy-5,6,7,8-tetrahydronaphthalene-2-carboxamide] | 86 |
| CC1(C(=O)NC2CCc3cc(C(=O)NO)ccc3C2)CCNCC1 (stereo not shown) [Compound I-170, N-{6-[(hydroxyamino)carbonyl]-1,2,3,4-tetrahydronaphthalen-2-yl}-4-methylpiperidine-4-carboxamide] | 73 |
| CN(C)Cc1cc(C(=O)NC2CCc3cc(C(=O)NO)ccc3C2)cc(C(F)(F)F)c1 (stereo not shown) [Compound I-171, 6-{[3-[(dimethylamino)methyl]-5-(trifluoromethyl)benzoyl]amino}-N-hydroxy-5,6,7,8-tetrahydronaphthalene-2-carboxamide] | 77 |

Further lines, results first:

| inhibition at 0.412 µM [%] | Compound |
| --- | --- |
| 92 | CC(=O)Nc1cc(C2CCc3ccc(C(=O)NO)cc3C2)ccn1 (stereo not shown) [Compound I-97, 7-[2-(acetylamino)pyridin-4-yl]-N-hydroxy-5,6,7,8-tetrahydronaphthalene-2-carboxamide] |
| 62 | O=C(NO)c1ccc2c(c1)CCC(c1ccccc1)C2 (stereo not shown) [Compound I-100, N-hydroxy-6-phenyl-5,6,7,8-tetrahydronaphthalene-2-carboxamide] |
| 55 | O=C(NO)c1ccc2c(c1)CCC(c1ccc(Cl)cc1)C2 (stereo not shown) [Compound I-101, 6-(4-chlorophenyl)-N-hydroxy-5,6,7,8-tetrahydronaphthalene-2-carboxamide] |
| 85 | CC(=O)Nc1cccc(C2CCc3cc(C(=O)NO)ccc3C2)c1 (stereo not shown) [Compound I-102, 6-[3-(acetylamino)phenyl]-N-hydroxy-5,6,7,8-tetrahydronaphthalene-2-carboxamide] |
| 53 | O=C(NO)c1ccc2c(c1)CCC(c1ccccc1C(F)(F)F)C2 (stereo not shown) [Compound I-109, N-hydroxy-6-[2-(trifluoromethyl)phenyl]-5,6,7,8-tetrahydronaphthalene-2-carboxamide] |
| 42 | COc1cccc(C2CCc3cc(C(=O)NO)ccc3C2)c1 (stereo not shown) [Compound I-110, N-hydroxy-6-(3-methoxyphenyl)-5,6,7,8-tetrahydronaphthalene-2-carboxamide] |
| 53 | O=C(NO)c1ccc2c(c1)CCC(c1cccc(C(F)(F)F)c1)C2 (stereo not shown) [Compound I-113, N-hydroxy-6-[3-(trifluoromethyl)phenyl]-5,6,7,8-tetrahydronaphthalene-2-carboxamide] |
| 81 | O=C(NO)c1ccc2c(c1)CC(c1cccc(C(F)(F)F)c1)CC2 (stereo not shown) [Compound I-115, N-hydroxy-7-[3-(trifluoromethyl)phenyl]-5,6,7,8-tetrahydronaphthalene-2-carboxamide] |
| 81 | COc1ccccc1C1CCc2ccc(C(=O)NO)cc2C1 (stereo not shown) [Compound I-116, N-hydroxy-7-(2-methoxyphenyl)-5,6,7,8-tetrahydronaphthalene-2-carboxamide] |
| 74 | COc1cccc(C2CCc3ccc(C(=O)NO)cc3C2)c1 (stereo not shown) [Compound I-119, N-hydroxy-7-(3-methoxyphenyl)-5,6,7,8-tetrahydronaphthalene-2-carboxamide] |
| 85 | O=C(NO)c1ccc2c(c1)CC(c1cccnc1)CC2 (stereo not shown) [Compound I-120, N-hydroxy-7-pyridin-3-yl-5,6,7,8-tetrahydronaphthalene-2-carboxamide] |
| 80 | O=C(NO)c1ccc2c(c1)CCC(c1cccnc1)C2 (stereo not shown) [Compound I-121, N-hydroxy-6-pyridin-3-yl-5,6,7,8-tetrahydronaphthalene-2-carboxamide] |
| 69 | CN(C)Cc1cccc(C2CCc3cc(C(=O)NO)ccc3C2)c1 (stereo not shown) [Compound I-183, 6-{3-[(dimethylamino)methyl]phenyl}-N-hydroxy-5,6,7,8-tetrahydronaphthalene-2-carboxamide] |

From patent publication US20140243335A1, “SUBSTITUTED HYDOXAMIC ACIDS AND USES THEREOF” (Millennium Pharmaceuticals, Inc., priority 2010, published 2014)
